Assay results: patent US7342015B2, “Indole derivatives” (H. Lundbeck A/S, priority 2001, dated 2008)

Assays:
[1] = target: T1, cloned 5-HT1A receptors (Homo sapiens, UniProt P08908); experiment: 5-HT1A antagonistic activity: antagonism of 5-HT induced inhibition of forskolin induced cAMP accumulation in transfected HeLa cells (HA7); type: cell-based; conditions: cloned 5-HT1A receptors in transfected HeLa cells (HA7)
T1 construct: expressed in transfected cells; host or cells: HeLa cells (HA7)
T1 sequence (P08908 1-422): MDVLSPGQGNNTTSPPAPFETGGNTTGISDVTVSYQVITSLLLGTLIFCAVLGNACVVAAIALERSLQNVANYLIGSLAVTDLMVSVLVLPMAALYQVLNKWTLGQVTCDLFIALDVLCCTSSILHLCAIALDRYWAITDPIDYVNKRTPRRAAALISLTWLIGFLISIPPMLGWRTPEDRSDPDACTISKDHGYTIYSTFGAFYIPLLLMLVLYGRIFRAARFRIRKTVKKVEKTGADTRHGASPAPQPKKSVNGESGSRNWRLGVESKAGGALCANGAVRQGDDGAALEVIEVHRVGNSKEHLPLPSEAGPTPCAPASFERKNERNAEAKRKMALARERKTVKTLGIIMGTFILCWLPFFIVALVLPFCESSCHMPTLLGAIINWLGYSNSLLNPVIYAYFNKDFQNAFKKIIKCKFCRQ
Procedure: The 5-HT1A antagonistic activity of some of the compounds of the invention has been estimated in vitro at cloned 5-HT1A receptors, stably expressed in transfected HeLa cells (HA7). In this test, 5-HT1A antagonistic activity is estimated by measuring the ability of the compounds to antagonize the 5-HT induced inhibition of forskolin induced cAMP accumulation. The assay was performed as a modification of the method described by Pauwels, P. J. et al. Biochem. Pharmacol. 1993, 45, 375.

[2] = target: T2, re-uptake of serotonin (3H-5-HT uptake into whole rat brain synaptosomes) (Rattus norvegicus, UniProt P31652); experiment: Inhibition of 3H-5-HT uptake into rat brain synaptosomes; type: biochemical; conditions: in vitro
T2 construct: whole rat brain synaptosomes; from tissue; host or cells: whole rat brain synaptosomes
Procedure: The compounds of the invention have also been tested for their effect on re-uptake of serotonin in the following test:
Inhibition of ^3H-5-HT Uptake Into Rat Brain Synaptosomes.
Using this method, the ability of drugs to inhibit the accumulation of ^3H-5-HT into whole rat brain synaptosomes is determined in vitro. The assay was performed as described by Hyttel, J. Psychopharmacology 1978, 60, 13.

[3] = target: T1, cloned 5-HT1A receptors; experiment: Inhibition of 3H-5-CT binding to human 5-HT1A receptors; conditions: cloned human 5-HT1A receptors in transfected HeLa cells (HA7), 15 minutes at 37° C., pH 7.7
Procedure: The affinity of the compounds of the invention to 5-HT1A receptors was determined by measuring the inhibition of binding of a radioactive ligand at 5-HT1A receptors as described in the following test:
Inhibition of ^3H-5-CT Binding to Human 5-HT1A Receptors.
By this method, the inhibition by drugs of the binding of the 5-HT1A agonist ^3H-5-carboxamido tryptamine (3H-5-CT) to cloned human 5-HT1A receptors stably expressed in transfected HeLa cells (HA7) (Fargin, A. et al. J. Biol. Chem. 1989, 264, 14848) is determined in vitro. The assay was performed as a modification of the method described by Harrington, M. A. et al. J. Pharmacol. Exp. Ther. 1994, 268, 1098. Human 5-HT1A receptors (40 μg of cell homogenate) were incubated for 15 minutes at 37° C. in 50 mM Tris buffer at pH 7.7 in the presence of ^3H-5-CT. Non-specific binding was determined by including 10 μM of metergoline. The reaction was terminated by rapid filtration through Unifilter GF/B filters on a Tomtec Cell Harvester. Filters were counted in a Packard Top Counter.

T2 sequence (P31652 whole entry): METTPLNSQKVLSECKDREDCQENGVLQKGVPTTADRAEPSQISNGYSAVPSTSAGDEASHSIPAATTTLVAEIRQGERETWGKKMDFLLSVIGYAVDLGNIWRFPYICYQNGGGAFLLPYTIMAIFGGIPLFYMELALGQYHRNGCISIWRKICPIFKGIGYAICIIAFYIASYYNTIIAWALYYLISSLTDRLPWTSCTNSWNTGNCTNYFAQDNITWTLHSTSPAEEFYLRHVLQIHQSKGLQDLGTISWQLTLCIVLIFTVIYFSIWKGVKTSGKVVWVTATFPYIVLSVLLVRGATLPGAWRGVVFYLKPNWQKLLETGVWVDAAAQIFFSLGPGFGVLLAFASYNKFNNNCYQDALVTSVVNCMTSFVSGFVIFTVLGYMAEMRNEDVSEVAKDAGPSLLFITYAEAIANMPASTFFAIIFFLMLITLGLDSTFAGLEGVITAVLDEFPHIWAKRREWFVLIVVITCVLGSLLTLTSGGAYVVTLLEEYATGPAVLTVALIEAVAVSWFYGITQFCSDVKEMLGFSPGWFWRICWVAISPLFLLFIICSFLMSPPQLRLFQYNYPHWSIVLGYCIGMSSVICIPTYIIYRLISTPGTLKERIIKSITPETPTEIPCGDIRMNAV

Cc1cc(C)c(C#N)c(SCCN2CCN(c3cccc4[nH]ccc34)CC2)n1 [Compound 1a, 2-{2-[4-(1H-Indol-4-yl)piperazin-1-yl]ethylsulfanyl}-4,6-dimethylnicotinonitrile]
IC50 [1]: < 7000 nM | IC50 [2]: < 20 nM

Cc1ccc(C#N)c(SCCN2CCN(c3cccc4[nH]ccc34)CC2)n1 [Compound 1d, 2-{2-[4-(1H-Indol-4-yl)piperazin-1-yl]ethylsulfanyl}-6-methylnicotinonitrile]
IC50 [1]: < 7000 nM | IC50 [3]: < 50 nM | IC50 [2]: < 20 nM

Cc1cc(C)c(C#N)c(SCCCN2CCN(c3cccc4[nH]ccc34)CC2)n1 [Compound 1l, 2-{3-[4-(1H-Indol-4-yl)piperazin-1-yl]propylsulfanyl}-4,6-dimethylnicotinonitrile]
IC50 [1]: < 7000 nM | IC50 [2]: < 20 nM

N#Cc1cccnc1SCCN1CCN(c2cccc3[nH]ccc23)CC1 [Compound 2b, 2-{2-[4-(1H-Indol-4-yl)piperazin-1-yl]ethylsulfanyl}nicotinonitrile]
IC50 [1]: < 7000 nM | IC50 [3]: < 50 nM | IC50 [2]: < 20 nM

N#Cc1c(C(F)(F)F)cc(C2CC2)nc1SCCN1CCN(c2cccc3[nH]ccc23)CC1 [Compound 2e, 2-{2-[4-(1H-Indol-4-yl)piperazin-1-yl]ethylsulfanyl}-4-trifluoromethyl-6-cyclopropylnicotinonitrile]
IC50 [1]: < 7000 nM | IC50 [3]: < 50 nM | IC50 [2]: < 20 nM

Cc1cc(C)nc(SCCN2CCN(c3cccc4[nH]ccc34)CC2)n1 [Compound 2o, 4,6-Dimethyl-2-{2-[4-(1H-indol-4-yl)piperazin-1-yl]ethylsulfanyl}pyrimidine]
IC50 [3]: < 50 nM | IC50 [2]: < 20 nM
